According to patent US20150203517A1, “Prodrugs of Compounds that Enhance Antifungal Activity and Compositions of Said Prodrugs” (priority 2014, published 2015):
Where a name gives a salt, the structure may show the parent alone. Read-outs that look alike come from different tables or passages of the source.

Test: Saline solubility at 1.00 mg/mL and 0.50 mg/mL (with pH by indicator paper)
Type: physicochemical
Details: for pH at 1.00 mg/mL of MGCD290 in saline: final concentration of hydroxamate 1 1.00 mg/mL, pH indicator paper; for solubility at 1 h: saline or isotonic, thermodynamic from solid, centrifuged, soluble = no precipitate formed
Protocol: Assays were performed to determine the saline solubility at 1.00 and 0.50 mg/ml and the stability of certain of the prodrug compounds of Examples 1-111. The following procedures were used.
Step 1. Sample preparation. An amount of the compound sample was precisely weighed to correspond to around 5 mg of the hydroxamate of compound 1, taking into account the mass of the leaving group and the salt factor if applicable. The sample was placed in a 16×125 mm glass screw cap tube. Saline was added so that the final concentration of hydroxamate 1 was 1.00 mg/mL. The pH was measured with pH indicator paper. The tube was shaken for 1 hour on a Vortex apparatus then centrifuged at 3000 rpm (1800 rcf) for 5 minutes. If the compound example was soluble (no precipitate formed) the procedure continued to step 2. If a precipitate formed then the sample was diluted with saline so that the final concentration of the hydroxamate of compound 1 was 0.50 mg/mL, and the shaking and centrifuging steps were repeated. If the compound example was soluble (no precipitate formed) the procedure continued to step 2. If a precipitate formed the sample was discarded. Step 2. HPLC analysis. A 500 μL aliquot of a sample solution prepared according to Step 1 was taken up into a 1.5 mL injection vial to which was added 500 μL of saline. The vial was shaken on a Vortex apparatus, injected into the HPLC instrument (UV detection, zero time point) and the retention time and purity of the sample compound were determined. The injection was repeated after 6 hours and 24 hours, and a comparison was made of the retention time, peak areas and level of degradation (if any) using the GDADI50 method.

[1] = 0.50 mg/mL as hydroxamate 1, shaken 1 hour, read-out: Soluble at 0.5 mg/mL of MGCD290 (Y/N)
[2] = 1.00 mg/mL as hydroxamate 1, shaken 1 hour, read-out: Soluble at 1.00 mg/mL of MGCD290 (Y/N)

SMILES	pH at 1.00 mg/mL of MGCD290 in saline	solubility at 1 h [1] [µg/mL]	solubility at 1 h [2] [µg/mL]
NCCCC[C@H](N)C(=O)N1CCC[C@H]1C(=O)ONC(=O)Cc1ccc(CCCCc2ccccc2)cc1 [Compound 106, N-((S)-1-((S)-2,6-Diaminohexanoyl)pyrrolidine-2-carbonyloxy)-2-(4-(4-phenylbutyl)phenyl) acetamide dihydrochloride]	3.5-4	< 500	< 1000
COCCOCCOCC(=O)NCCCC[C@H](NC(=O)COCCOCCOC)C(=O)N1CCC[C@H]1C(=O)ONC(=O)Cc1ccc(CCCCc2ccccc2)cc1 [Compound 107, N,N′-((S)-6-Oxo-6-((S)-2-((2-(4-(4-phenylbutyl)phenyl)acetamidooxy)carbonyl)pyrrolidin-1-yl)hexane-1,5-diyl)bis(2-(2-(2-methoxyethoxyl)ethoxy)acetamide)]	4.5-5		> 1000
COCCOCC(=O)NCCCC[C@H](NC(=O)COCCOC)C(=O)N1CCC[C@H]1C(=O)ONC(=O)Cc1ccc(CCCCc2ccccc2)cc1 [Compound 108]	4.5-5	< 500	< 1000
COCCOCCOCC(=O)N1CCC(CCC(=O)ONC(=O)Cc2ccc(CCCCc3ccccc3)cc2)CC1 [Compound 112]	5.5-6	< 500	< 1000
COCCOCCOCCOCCOCC(=O)N1CCC(CCC(=O)ONC(=O)Cc2ccc(CCCCc3ccccc3)cc2)CC1 [Compound 113]	5.5-6	< 500	< 1000
Cl.O=C(Cc1ccc(CCCCc2ccccc2)cc1)NOC(=O)CC1CCNCC1 [Compound 114]	4-4.5	< 500	< 1000
COCCOCCOCC(=O)N1CCC(CC(=O)ONC(=O)Cc2ccc(CCCCc3ccccc3)cc2)CC1 [Compound 115]	4.5-5	< 500	< 1000
COCCOCCOCCOCC(=O)N1CCC(CC(=O)ONC(=O)Cc2ccc(CCCCc3ccccc3)cc2)CC1 [Compound 116]	4.5-5	< 500	< 1000
COCCOCCOCCOCCOCCOCC(=O)N1CCC(CC(=O)ONC(=O)Cc2ccc(CCCCc3ccccc3)cc2)CC1 [Compound 117]	4.5-5		> 1000
Cl.O=C(Cc1ccc(CCCCc2ccccc2)cc1)NOC(=O)C1CCNCC1 [Compound 118, 2-(4-(4-phenylbutyl)phenyl)-N-(piperidine-4-carbonyloxy)acetamide hydrochloride]	4-4.5	< 500	< 1000
COCCOCCOCC(=O)N1CCC(C(=O)ONC(=O)Cc2ccc(CCCCc3ccccc3)cc2)CC1 [Compound 119]	4.5-5	< 500	< 1000
Cl.O=C(Cc1ccc(CCCCc2ccccc2)cc1)NOC(=O)CCCC1CCNCC1 [Compound 121, 2-(4-(4-phenylbutyl)phenyl)-N-(4-(piperidin-4-yl)butanoyloxy) acetamide hydrochloride]	5.-5.5	< 500	< 1000
Cl.O=C(Cc1ccc(CCCCc2ccccc2)cc1)NOC(=O)CCC(=O)N1CCNCC1 [Compound 123, N-(4-oxo-4-(piperazin-1-yl)butanoyloxy)-2-(4-(4-phenylbutyl)phenyl) acetamide hydrochloride]	4.5-5		> 1000
COCCOCCOCC(=O)N1CCN(C(=O)CCC(=O)ONC(=O)Cc2ccc(CCCCc3ccccc3)cc2)CC1 [Compound 124]	5-5.5		> 1000
Cl.O=C(Cc1ccc(CCCCc2ccccc2)cc1)NOC(=O)COC1CCNCC1 [Compound 125, 2-(4-(4-phenylbutyl)phenyl)-N-(2-(piperidin-4-yloxy)acetoxy)acetamide hydrochloride]	4.5-5	< 500	< 1000
COCCOCCOCCOCCOCCOCC(=O)N1CCC(OCC(=O)ONC(=O)Cc2ccc(CCCCc3ccccc3)cc2)CC1 [Compound 127]	4.5-5	< 500	< 1000

SMILES	pH at 1.00 mg/mL of MGCD290 in saline	solubility at 1 h [1] [µg/mL]	solubility at 1 h [2] [µg/mL]
Cl.O=C(Cc1ccc(CCCCc2ccccc2)cc1)NOC(=O)CCN1CCNCC1=O [Compound 128, N-(3-(2-oxopiperazin-1-yl)propanoyloxy)-2-(4-(4-phenylbutyl)phenyl) acetamide hydrochloride]	4.5-5		> 1000
COCCOCCOCC(=O)N1CC(CCCC(=O)ONC(=O)Cc2ccc(CCCCc3ccccc3)cc2)C1 [Compound 128B]	5.5-6	< 500	< 1000
NCCNCC(=O)NCCCC(=O)ONC(=O)Cc1ccc(CCCCc2ccccc2)cc1 [Compound 133, 2-(2-Aminoethylamino)-N-(4-oxo-4-(2-(4-(4-phenylbutyl)phenyl)acetamidooxy)butyl) acetamide dihydrochloride]	4.5-5	< 500	< 1000
COCCOCCOCC(=O)NCCN(CC(=O)NCCCC(=O)ONC(=O)Cc1ccc(CCCCc2ccccc2)cc1)C(=O)COCCOCCOC [Compound 134, 2-(2-(2-Methoxyethoxyl)ethoxy)-N-(2-oxo-2-(4-oxo-4-(2-(4-(4-phenylbutyl)phenyl)acetamidooxy)butylamino)ethyl)-N-(10-oxo-2,5,8-trioxa-11-azatridecan-13-yl)acetamide]	5.5-6		> 1000
COCCOCCOCC(=O)NCCN(CC(=O)NCCC(=O)ONC(=O)Cc1ccc(CCCCc2ccccc2)cc1)C(=O)COCCOCCOC [Compound 136]	5.5-6	< 500	< 1000
COCCOCCOCC(=O)NCCCC[C@H](N)C(=O)NCCC(=O)ONC(=O)Cc1ccc(CCCCc2ccccc2)cc1.Cl [Compound 142, (S)-2-Amino-6-(2-(2-(2-methoxyethoxy)ethoxy)acetamido)-N-(3-oxo-3-(2-(4-(4-phenylbutyl)phenyl)acetamidooxy)propyl) hexanamide hydrochloride]	5-5.5		> 1000
COCCOCCOCC(=O)NC[C@H](NC(=O)COCCOCCOC)C(=O)NCCC(=O)ONC(=O)Cc1ccc(CCCCc2ccccc2)cc1 [Compound 143]	4.5-5	< 500	< 1000
COCCC(=O)NC[C@H](NC(=O)CCOC)C(=O)NCCC(=O)ONC(=O)Cc1ccc(CCCCc2ccccc2)cc1 [Compound 144]	4.5-5	< 500	< 1000
COCCOCC(=O)NC[C@H](NC(=O)COCCOC)C(=O)NCCC(=O)ONC(=O)Cc1ccc(CCCCc2ccccc2)cc1 [Compound 145]	4.5-5	< 500	< 1000
CC(=O)OCC(=O)NC[C@H](NC(=O)COC(C)=O)C(=O)NCCC(=O)ONC(=O)Cc1ccc(CCCCc2ccccc2)cc1 [Compound 146]	4.5-5	< 500	< 1000
COCCOCCOCC(=O)NCC[C@H](NC(=O)COCCOCCOC)C(=O)NCCC(=O)ONC(=O)Cc1ccc(CCCCc2ccccc2)cc1 [Compound 147]	4.5-5	< 500	< 1000
COCCC(=O)NCCCC[C@H](NC(=O)CCOC)C(=O)NCCC(=O)ONC(=O)Cc1ccc(CCCCc2ccccc2)cc1 [Compound 148]	4.5-5	< 500	< 1000
COCCOCCOCCOCCOCC(=O)NCC[C@H](NC(=O)COCCOCCOCCOCCOC)C(=O)NCCC(=O)ONC(=O)Cc1ccc(CCCCc2ccccc2)cc1 [Compound 149]	4.5-5	< 500	< 1000
COCCOCCOCCOCCOCCOCC(=O)NCC[C@H](NC(=O)COCCOCCOCCOCCOCCOC)C(=O)NCCC(=O)ONC(=O)Cc1ccc(CCCCc2ccccc2)cc1 [Compound 150]	4.5-5	< 500	< 1000
CC(=O)OCC(=O)NCC[C@H](NC(=O)COC(C)=O)C(=O)NCCC(=O)ONC(=O)Cc1ccc(CCCCc2ccccc2)cc1 [Compound 151]	4.5-5	< 500	< 1000
COCCC(=O)NCC[C@H](NC(=O)CCOC)C(=O)NCCC(=O)ONC(=O)Cc1ccc(CCCCc2ccccc2)cc1 [Compound 152]	4.5-5	< 500	< 1000
